# “Also recorded” adds a separate entry of the source. Read-outs that look alike come from different tables or passages of the source.
# Experiments:
# [1] = tested on: Gram-positive and Gram-negative bacteria; experiment: In vitro antibacterial activity (general); assay type: cell-based
# Method: (§1) The minimum inhibitory concentrations (MIC) of Bu-2183 A and B were determined against a wide variety of bacteria by the two-fold agar dilution method on Nutrient Agar plates. The inocula-replicating device of Steers et al. was used. Inoculum size was adjusted to be 10^4 dilution of overnight culture of the test organisms in Heart Infusion Broth (Difco). The results are shown in Table 6 along with those of kanamycin which was comparatively tested as a reference antibiotic.
# [2] = tested on: E. coli R 5; experiment: MIC, two-fold agar dilution on Nutrient Agar; assay type: cell-based; settings: Escherichia coli
# Method: as §1
# [3] = tested on: Ent. cloacae A21006; experiment: MIC, two-fold agar dilution on Nutrient Agar; assay type: cell-based; settings: Enterobacter cloacae, A21006
# Method: as §1
# [4] = tested on: E. coli NIHJ; experiment: MIC, two-fold agar dilution on Nutrient Agar; assay type: cell-based; settings: Escherichia coli
# Method: as §1
# [5] = tested on: Pr. morganii A20031; experiment: MIC, two-fold agar dilution on Nutrient Agar; assay type: cell-based; settings: Morganella morganii, A20031
# Method: as §1
# [6] = tested on: E. coli JR 66/W677; experiment: MIC, two-fold agar dilution on Nutrient Agar; assay type: cell-based; settings: Escherichia coli
# Method: as §1
# [7] = tested on: S. aureus D137; experiment: MIC, two-fold agar dilution on Nutrient Agar; assay type: cell-based; settings: Staphylococcus aureus
# Method: as §1
# [8] = tested on: K. pneumoniae Type 22-3038; experiment: MIC, two-fold agar dilution on Nutrient Agar; assay type: cell-based; settings: Klebsiella pneumoniae, TYPE223038
# Method: as §1
# [9] = tested on: Ps. aeruginosa A20653; experiment: MIC, two-fold agar dilution on Nutrient Agar; assay type: cell-based; settings: Pseudomonas aeruginosa
# Method: as §1
# [10] = tested on: Ps. aeruginosa A9930; experiment: MIC, two-fold agar dilution on Nutrient Agar; assay type: cell-based; settings: Pseudomonas aeruginosa, A9930
# Method: as §1
# [11] = tested on: Ps. aeruginosa No. 130; experiment: MIC, two-fold agar dilution on Nutrient Agar; assay type: cell-based; settings: Pseudomonas aeruginosa, NO.130
# Method: as §1
# [12] = tested on: Ent. cloacae A20364; experiment: MIC, two-fold agar dilution on Nutrient Agar; assay type: cell-based; settings: Enterobacter cloacae, A20364
# Method: as §1
# [13] = tested on: E. coli JR 35/C600; experiment: MIC, two-fold agar dilution on Nutrient Agar; assay type: cell-based; settings: Escherichia coli, JR35/C600
# Method: as §1
# [14] = tested on: S. aureus Smith; experiment: MIC, two-fold agar dilution on Nutrient Agar; assay type: cell-based; settings: Staphylococcus aureus
# Method: as §1
# [15] = tested on: Pseudomonas sp. A20621; experiment: MIC, two-fold agar dilution on Nutrient Agar; assay type: cell-based; settings: Pseudomonas, SP.A20621
# Method: as §1
# [16] = tested on: E. coli A20732; experiment: MIC, two-fold agar dilution on Nutrient Agar; assay type: cell-based; settings: Escherichia coli, A20732
# Method: as §1
# [17] = tested on: K. pneumoniae D11; experiment: MIC, two-fold agar dilution on Nutrient Agar; assay type: cell-based; settings: Klebsiella pneumoniae
# Method: as §1
# [18] = tested on: E. coli A20895; experiment: MIC, two-fold agar dilution on Nutrient Agar; assay type: cell-based; settings: Escherichia coli
# Method: as §1
# [19] = tested on: E. coli NR 79/W677; experiment: MIC, two-fold agar dilution on Nutrient Agar; assay type: cell-based; settings: Escherichia coli
# Method: as §1
# [20] = tested on: S. aureus D133; experiment: MIC, two-fold agar dilution on Nutrient Agar; assay type: cell-based; settings: Staphylococcus aureus
# Method: as §1
# [21] = tested on: Prov. stuartii A20894; experiment: MIC, two-fold agar dilution on Nutrient Agar; assay type: cell-based; settings: Providencia stuartii, A20894
# Method: as §1
# [22] = tested on: Pr. mirabilis A9554; experiment: MIC, two-fold agar dilution on Nutrient Agar; assay type: cell-based; settings: Proteus mirabilis
# Method: as §1
# [23] = tested on: Ps. aeruginosa A20601; experiment: MIC, two-fold agar dilution on Nutrient Agar; assay type: cell-based; settings: Pseudomonas aeruginosa
# Method: as §1
# [24] = tested on: Ps. aeruginosa GN 315; experiment: MIC, two-fold agar dilution on Nutrient Agar; assay type: cell-based; settings: Pseudomonas aeruginosa, GN315
# Method: as §1
# [25] = tested on: Ps. aeruginosa A20896; experiment: MIC, two-fold agar dilution on Nutrient Agar; assay type: cell-based; settings: Pseudomonas aeruginosa
# Method: as §1
# [26] = tested on: Ser. marcescens A21247; experiment: MIC, two-fold agar dilution on Nutrient Agar; assay type: cell-based; settings: Serratia marcescens
# Method: as §1
# [27] = tested on: Ser. marcescens A20019; experiment: MIC, two-fold agar dilution on Nutrient Agar; assay type: cell-based; settings: Serratia marcescens, A20019
# Method: as §1
# [28] = tested on: S. aureus A20239; experiment: MIC, two-fold agar dilution on Nutrient Agar; assay type: cell-based; settings: Staphylococcus aureus
# Method: as §1
# [29] = tested on: Pr. vulgaris A9436; experiment: MIC, two-fold agar dilution on Nutrient Agar; assay type: cell-based; settings: Proteus vulgaris
# Method: as §1
# [30] = tested on: E. coli PO 1495; experiment: MIC, two-fold agar dilution on Nutrient Agar; assay type: cell-based; settings: Escherichia coli, PO1495, read-out: MIC
# Method: as §1
# [31] = tested on: E. coli A20107; experiment: MIC, two-fold agar dilution on Nutrient Agar; assay type: cell-based; settings: Escherichia coli
# Method: as §1
# [32] = tested on: E. coli ML 1630; experiment: MIC, two-fold agar dilution on Nutrient Agar; assay type: cell-based; settings: Escherichia coli
# Method: as §1
# [33] = tested on: S. aureus D193; experiment: MIC, two-fold agar dilution on Nutrient Agar; assay type: cell-based; settings: Staphylococcus aureus, D193
# Method: as §1
# [34] = Solubility; assay type: physicochemical; settings: base
# [35] = Titration in water; assay type: physicochemical
smiles,measurement,setting,value
CCCC(=O)NC1C(CO)OC(OC(C(O)CN)C(N)C(O)CO)C(O)C1O (stereo not drawn) [Bu-2183 A2],bio-activity,[1],bio-active
same,activity of Bu-2183 A2 relative to Bu-2183 A and B,[1]; in vitro,more active than Bu-2183 B but less active than Bu-2183 A
same,antibacterial spectrum,[1]; in vitro,broad spectrum of antibacterial activity
same,MIC,"[2]; R5, Table 7, Ec-55",25 µg/mL
same,MIC,"[3]; Table 7, El-12, read-out: MIC",100 µg/mL
same,MIC,"[4]; Table 7, Ec-1, read-out: MIC",100 µg/mL
same,MIC,"[5]; Table 7, Pg-2, read-out: MIC",50 µg/mL
same,MIC,"[6]; JR66/W677, Table 7, Ec-53",25 µg/mL
same,MIC,"[7]; D137, Table 7, Sa-9, read-out: MIC",100 µg/mL
same,MIC,"[8]; Table 7, Kp-8 (printed Type 22-3028), read-out: MIC",100 µg/mL
same,MIC,"[9]; A20653, Table 7, Pa-12, read-out: MIC",> 100 µg/mL
same,MIC,"[10]; Table 7, Pa-3, read-out: MIC",50 µg/mL
same,MIC,"[11]; Table 7, Pa-16, read-out: MIC",100 µg/mL
same,MIC,"[12]; Table 7, El-2, read-out: MIC",100 µg/mL
same,MIC,[13],6.3 µg/mL
same,MIC,"[14]; Table 7, Sa-2, read-out: MIC",25 µg/mL
same,MIC,"[15]; Table 7, Px-10, read-out: MIC",> 100 µg/mL
same,MIC,"[16]; Table 7, Ec-72, read-out: MIC",25 µg/mL
same,MIC,"[17]; D11, Table 7, Kp-1, read-out: MIC",12.5 µg/mL
same,MIC,"[18]; A20895, Table 7, Ec-62, read-out: MIC",50 µg/mL
same,MIC,"[19]; NR79/W677, Table 7, Ec-9",25 µg/mL
same,MIC,"[20]; D133, Table 7, Sa-4, read-out: MIC",100 µg/mL
same,MIC,"[21]; Table 7, Ps-2, read-out: MIC",> 100 µg/mL
same,MIC,"[22]; A9554, Table 7, Pm-1, read-out: MIC",50 µg/mL
same,MIC,"[23]; A20601, Table 7, Pa-21, read-out: MIC",> 100 µg/mL
same,MIC,"[24]; Table 7, Pa-27, read-out: MIC",100 µg/mL
same,MIC,"[25]; A20896, Table 7, Pa-24, read-out: MIC",> 100 µg/mL
same,MIC,"[26]; A21247, Table 7, Sm-16, read-out: MIC",> 100 µg/mL
same,MIC,"[27]; Table 7, Sm-1, read-out: MIC",> 100 µg/mL
same,MIC,"[28]; A20239, Table 7, Sa-10, read-out: MIC",100 µg/mL
same,MIC,"[29]; A9436, Table 7, Pv-1, read-out: MIC",100 µg/mL
same,MIC,"[30]; Table 7, Ec-2",> 100 µg/mL
same,MIC,"[31]; A20107, Table 7, Ec-49, read-out: MIC",50 µg/mL
same,MIC,"[32]; ML1630, Table 7, Ec-5, read-out: MIC",50 µg/mL
same,MIC,"[33]; Table 7, Sa-3, read-out: MIC",50 µg/mL
same,solubility in methanol and ethanol,[34],slightly soluble
same,"solubility in n-butanol, acetone and other common organic solvents",[34],practically insoluble
same,solubility in water,[34],soluble
NC[C@H](O)[C@@H](O[C@H]1O[C@H](CO)[C@@H](O)[C@H](O)[C@H]1O)[C@H](N)[C@H](O)CO [Bu-2183 C],bio-activity,[1],bio-inactive; also recorded: bioinactive
NC[C@H](O)[C@@H](O[C@H]1O[C@H](CO)[C@@H](N)[C@H](O)[C@H]1O)[C@H](N)[C@H](O)CO [Bu-2183 D],bio-activity,[1],bio-inactive
same,bio-activity,[1]; listed as D,bio-inactive; also recorded: bioinactive
same,solubility in methanol and ethanol,[34],slightly soluble
same,"solubility in n-butanol, acetone and other common organic solvents",[34],practically insoluble
same,solubility in water,[34],soluble
same,pKa,[35]; read-out: pKa' (first value),6.95
same,pKa,[35]; read-out: pKa' (second value),9.68
"NC[C@H]1O[C@H](O[C@H]2[C@H](O)[C@@H](O[C@H]3O[C@H](CO)[C@@H](O)[C@H](N)[C@H]3O)[C@H](N)C[C@@H]2N)[C@H](O)[C@@H](O)[C@@H]1O [Kanamycin A, reference compound]",MIC,"[2]; R5, Table 6, Ec-55",6.3 µg/mL
same,MIC,[3],50 µg/mL
same,MIC,[4],0.8 µg/mL
same,MIC,[5],0.8 µg/mL
same,MIC,"[6]; JR66/W677, Table 6, Ec-53",25 µg/mL
same,MIC,[7]; D137,1.6 µg/mL
same,MIC,[8],100 µg/mL
same,MIC,[9]; A20653,> 100 µg/mL
same,MIC,[10],6.3 µg/mL
same,MIC,[11],25 µg/mL
same,MIC,[12],100 µg/mL
same,MIC,[13],12.5 µg/mL
same,MIC,[14],0.2 µg/mL
same,MIC,[15],12.5 µg/mL
same,MIC,[16],12.5 µg/mL
same,MIC,[17]; D11,0.2 µg/mL
same,MIC,[18]; A20895,0.8 µg/mL
same,MIC,"[19]; NR79/W677, Table 6, Ec-9",25 µg/mL
same,MIC,[20]; D133,0.8 µg/mL
same,MIC,[21],0.8 µg/mL
same,MIC,[22]; A9554,0.4 µg/mL
same,MIC,[23]; A20601,12.5 µg/mL
same,MIC,[24],100 µg/mL
same,MIC,[25]; A20896,> 100 µg/mL
same,MIC,[26]; A21247,> 100 µg/mL
same,MIC,[27],0.8 µg/mL
same,MIC,[28]; A20239,25 µg/mL
same,MIC,[29]; A9436,0.2 µg/mL
same,MIC,"[30]; Table 6, Ec-2",0.4 µg/mL
same,MIC,[31]; A20107,25 µg/mL
same,MIC,[32]; ML1630,100 µg/mL
same,MIC,[33],0.4 µg/mL

# Reference: patent US4012576A, “Antibiotic complex Bu 2183” (priority 1975, dated 1977)
